In patent US11999782B2, “Therapeutic agents for the treatment of diseases associated with undesired cell proliferation” (Fundació Privada Institutció Catalana de Recerca I Estudis …, priority 2009, dated 2024):

What was measured:
[1] = system: normal human neuroprogenitors; test: Self-renewal assay of normal human neuroprogenitor neurospheres; type: cell-based; settings: 100 pM TGFβ1 or 20 ng/ml LIF, 7 days
Method: FIG. 8. Effect of TGFβ on the capacity of self-renewal of normal human neuroprogenitors. (A) Immunocytochemistry of the indicated markers was performed in human neuroprogenitor neurospheres. (B) Neurospheres of the sample of GBM1 and of human neuroprogenitors were incubated with the indicated members of the 100 pM TGFβ family for 3 hours and the mRNA levels of LIF were determined. (C, D) Neurosphere cells of normal human neuroprogenitors were incubated in the same conditions that have been described above in FIG. 1D in the presence of 100 pM TGFβ1 or 20 ng/ml LIF for 7 days and the number of newly formed neurospheres (C) and the number total of cells (D) were determined.
(§1) The U373MG and A172 cells were a generous gift from J. Rich and D. Bigner and were cultured in DMEM with 10% fetal bovine serum (FBS). The primary culture of tumor cells (PCTC) and the GBM neurospheres were generated as described (Bruna et al., (2007) Cancer Cell 11, 147-160; Gunther et al., (2008) Oncogene. May 1; 27(20):2897-909). Briefly, the samples of tumors were processed in the 30 minutes after the surgical resection. The ground pieces of the samples of human gliomas were digested with 200 U/ml collagenase I (Sigma) and 500 U/ml of DNase I (Sigma) in PBS for 2 hours at 37° C. and with constant vigorous stirring. The suspension of individual cells was filtered through a 70 μm cell filter (BD Falcon) and washed with PBS. Finally, the cells were resuspended and subsequently cultured in DMEM with 10% FBS, for the culture of PCTCs, or in neurosphere medium in the case of the GBM neurospheres. The neurospheres of normal human neuroprogenitors were generated from human embryonic cerebral cortex tissue (12-16 weeks after the conception) collected after voluntary abortions. The samples were processed and cultured as described (Poltavtseva et al. (2002) Brain Res Dev Brain Res 134, 149-154). The neurosphere medium consists of neurobasal medium (Gibco) supplemented with B27 (Gibco), L-glutamine (Gibco), penicillin/streptomycin, and growth factors (20 ng/mL EGF and 20 ng/mL FGF-2 (Peprotech)).
The self-renewal of the neurospheres was evaluated by seeding an identical number of cells at a very low density in wells of a 96-well plate. The cells were treated, in the absence of growth factors, with the indicated compounds and the total number of new neurospheres formed after 7 days in culture was counted (Lee et al. (2008) Cancer Cell 13, 69-80; Reynolds and Weiss, (1996) Dev Biol 175, 1-13; Seaberg and van der Kooy, (2002) J Neurosci 22, 1784-1793).
It was decided to assess whether this effect was specific to tumor cells or was also present in normal neuroprogenitor cells. To answer this question, neuroprogenitor cells were obtained from samples of human fetal cerebral cortex (from 12 to 16 weeks after conception). As has been previously described (Carpenter et al., 1999, Exp Neurol, 158: 265-278; Poltavtseva et al., 2002, Brain Res Dev Brain Res, 134: 149-154; Wright et al., 2003, J Neurochem, 86: 179-195), human neuroprogenitors generated neurospheres when they were grown in serum-free medium supplemented with EGF and FGF and these neurospheres expressed Musashi-1, Sox2 and Nestin similarly to GBM neurospheres (FIG. 8A). First, it was determined if TGFβ induced LIF in normal human neuroprogenitors. […] In fact, the neurospheres treated with TGFβ were smaller and the total number of cells had decreased due to the presence of TGFβ (FIG. 8C, 8D). On the other hand, LIF increased the number and size of the newly formed neurospheres as well as the total number of cells (FIG. 8C, 8D) according to previous articles (Bauer and Patterson, 2006; Wright et al., 2003). Thus, LIF has the same effect on the self-renewal in GBM and normal neurospheres. On the contrary, there is a difference in the effect of TGFβ on the capacity for self-renewal of normal and tumor neurospheres due to the incapacity of TGFβ to induce LIF normal in neuroprogenitors.

[2] = system: LIF expression in GBM neurospheres; test: LIF mRNA by qRT-PCR in GBM neurospheres; type: cell-based, human; settings: 3 hours; for LIF transcript in neurospheres derived from patients: 100 pM, medium without serum
Method: FIG. 3. TGFβ induces the expression of LIF in PCTC and GBM neurospheres. (A) PCTC cells of the 11 samples of the indicated GEM (GBM1-11) were treated with 100 pM TGFβ1 for 3 hours in medium without serum or left untreated, and the expression levels of LIF were determined by means of qRT-PCR. The g-actin was determined as an internal normalization control. (B) GBM neurosphere cells were treated as in A and the expression levels of LIF were determined by means of qRT-PCR as in A. (C) GBM neurospheres were incubated with 100 pM TGFβ1 and/or 2 μM TβRI inhibitor for 3 hours in medium without serum and the mRNA levels of LIF were determined by means of qRT-PCR as in A. (D) GBM1 neurospheres were incubated with 100 pM TGFβ1, TGFβ2 and TGFβ3 for 3 hours in medium without serum and the mRNA levels of LIF were determined by means of qRT-PCR as in A. (E) The levels of LIF protein secreted were determined by means of ELISA in GBM1 neurospheres after 48 hours of treatment with 100 pM TGFβ1.
as §1
qRT-PCR was performed using Taqman probes from Applied Biosystems, according to the manufacturer's recommendations. The reactions were carried out in a ABI 7000 sequence detector (Perkin Elmer) and the results were expressed as the fold change calculated by means of the DDCt method relative to the control sample or the first quantified sample. The ribosomal unit of 18S or β-actin were used as internal normalization controls.
It was decided to investigate the molecular mechanisms responsible for the effect of TGFβ on GICs. Gene responses to TGFβ in GBM cells which could be involved in the regulation of the self-renewal of GICs were investigated. In a previous work (Bruna et al., 2007), transcriptome analyses were conducted in the U373MG glioma cell line treated with TGFβ and/or a TβRI inhibitor. LIF was among the 63 gene responses to TGFβ in U373MG which were dependent on the activity of TβRI. […] A panel of PCTCs derived from 11 different human GBMs was treated with TGFβ for 3 hours and the levels of LIF mRNA were determined.

Molecule	number of newly formed neurospheres (normal neuroprogenitors) [1]	size of neurospheres (normal neuroprogenitors) [1]	total number of cells (normal neuroprogenitors) [1]	LIF transcript in neurospheres derived from patients [2]	LIF transcript in neurospheres derived from patients ([2]; listed as TGFβ1)	effect on the induction of LIF by TGFβ ([2]; GBM neurospheres, 100 pM TGFβ1 with 2 μM TβRI inhibitor)
TGFβ: TGFβ1 (R&D Systems), used at 100 pM according to the figure legends	did not increase	smaller	decreased	capable of inducing the LIF transcript	capable of inducing LIF	
LIF: recombinant leukemia inhibitory factor, an IL-6 type cytokine (Chemicon)	increased	increased	increased			
NC(=O)c1ccc(-c2nc(-c3ccc4c(c3)OCO4)c(-c3ccccn3)[nH]2)cc1 [TβRI inhibitor, SB431542, reference compound]						blocked
